From US20220370470A1 (WisTa Laboratories Ltd., priority 2019, published 2022)
Where a name gives a salt, the structure may show the parent alone.

Legend:
α-synuclein = assay: Immunohistochemistry of α-synuclein, wild-type mice; type: in vivo; set-up: key: ‘—’ indicates no effect; settings: LMTM 5 or 15 mg/kg/day alone or following chronic rivastigmine 0.1 or 0.5 mg/kg/day, approximate rounded percentages
Description: (§1) Wild-type and L1 mice (n=7-16 for each group) were pre-treated with rivastigmine (0.1 or 0.5 mg/kg/day) or memantine (2 or 20 mg/kg/day) or vehicle for 5 weeks by gavage. For the following 6 weeks, LMTM (5 and 15 mg/kg) or vehicle were added to this daily treatment regime, also by gavage. Animals were tested behaviourly during weeks 10 and 11 using a problem solving task in the open field water maze and then sacrificed for immunohistochemical and other tissue analyses.
(§2) Translating doses from mice to humans requires consideration of a number of factors. […] The higher dose of 15 mg/kg/day is generally required for LMTM to be fully effective in the L1 mouse model (Melis et al., 2015a). […] Tissue sectioned for immunohistochemistry was labelled with antibody and processed using Image J to determine protein expression densitometrically. Data are presented as Z-score transformations without units.

[1] = test system: acetylcholine (ACh) levels in hippocampus; assay: ACh levels in hippocampus, microdialysis probe and HPLC, wild-type mice; type: in vivo
Description: For measurement of acetylcholine (ACh) levels in hippocampus, animals (wild-type or L1) were treated with LMTM (5 mg/kg/day for 2 weeks) after prior treatment for 2 weeks with or without rivastigmine (0.5 mg/kg/day). Rivastigmine was administered subcutaneously with an Alzet minipump whereas LMTM was administered by oral gavage. Levels of ACh were measured in hippocampus using an implanted microdialysis probe and HPLC analysis of the extracellular fluid.
Data are presented as group averages and standard errors of mean and were analysed using parametric statistics, with alpha set to 0.05.

[2] = test system: SNARE complex proteins (SNAP25, syntaxin and VAMP2); assay: Immunohistochemistry of SNARE complex proteins, wild-type mice; type: in vivo; set-up: key: ‘—’ indicates no effect; settings: LMTM 5 or 15 mg/kg/day alone or following chronic rivastigmine 0.1 or 0.5 mg/kg/day, approximate rounded percentages
Description: as §1, §2

synaptophysin = assay: Immunohistochemistry of synaptophysin, wild-type mice; type: in vivo
Description: FIG. 1. Treatment effects of LMTM alone or following chronic pretreatment with rivastigmine in wild-type mice on hippocampal levels of acetylcholine (A) or synaptophysin levels measured immunohistochemically as the mean in hippocampus, visual cortex, diagonal band and septum (B). (**, p<0.01; ***, p<0.001).
as §1, §2

mitochondrial complex IV = assay: Mitochondrial complex IV activity, wild-type mice; type: in vivo; settings: LMTM 5 or 15 mg/kg/day alone or following chronic rivastigmine 0.1 or 0.5 mg/kg/day, approximate rounded percentages
Description: as §1

wild-type mice = assay: Behaviour, problem solving task in the open field water maze, wild-type mice; type: in vivo; settings: LMTM 5 or 15 mg/kg/day alone or following chronic rivastigmine 0.1 or 0.5 mg/kg/day, approximate rounded percentages
Description: as §1

[3] = test system: ACh levels in the hippocampus; assay: Hippocampal ACh levels with scopolamine blocking M2/M4 negative feedback receptors; type: in vivo, wild type mice

Structure (SMILES) | α-Synuclein (α-synuclein) | reduction in basal ACh levels in hippocampus ([1]; LMTM after prior treatment with rivastigmine (0.5 mg/kg/day)) | increase in basal ACh levels in hippocampus ([1]; LMTM treatment alone (5 mg/kg/day for 2 weeks), significant) | SNARE complex [2] | change in mean synaptophysin levels (synaptophysin; LMTM given against a background of prior treatment with rivastigmine) | increase in mean synaptophysin levels (synaptophysin; hippocampus, visual cortex, diagonal band and septum, LMTM treatment alone) | Mitochondrial complex IV (mitochondrial complex IV) | Behaviour (wild-type mice) | increase in ACh levels in scopolamine experiments ([3]; wild type mice, scopolamine blocking M2/M4 negative feedback receptors, 100 nanomolar rivastigmine in perfusion fluid) | rise in ACh levels ([3]; hippocampus, scopolamine 1 μM added to the perfusion fluid containing 100 nanomolar rivastigmine)
CN(C)c1ccc2c(c1)Sc1cc(N(C)C)ccc1N2 [LMTM, hydromethylthionine mesylate] | — | 30% | 2 fold | — | statistically significant reduction of the same magnitude | 3 fold | did not show any increase and — | not associated with improvement in spatial recognition memory and — | less than that seen with rivastigmine alone | 
CN1[C@@H]2C[C@@H](OC(=O)[C@H](CO)c3ccccc3)C[C@H]1[C@@H]1O[C@@H]12 [scopolamine, reference compound] |  |  |  |  |  |  |  |  |  | 3-5 fold
